{
  "source": "ChEMBL document CHEMBL6182916",
  "about": "“Unexpected Discovery of a Novel Triphenylphosphonium Alkylalcohol That Triggers Cancer Cell Death via Mitophagy and Ferroptosis” (J Med Chem, 2025)",
  "key": {"[1]": {"assay": "Antiproliferative activity against human LO2 cells assessed as inhibition of cell growth measured after 72 hrs by MTT assay", "format": "toxicity, cell-based, L02"}, "[2]": {"assay": "Antiproliferative activity against human Osimertinib-resistant HCC827 cell assessed as inhibition of cell growth measured after 72 hrs by MTT assay", "format": "functional, cell-based"}, "[3]": {"tested_on": "A-375", "assay": "Antiproliferative activity against human A-375 cells assessed as inhibition of cell growth measured after 72 hrs by MTT assay", "format": "functional, cell-based", "settings": "A-375, 72 h"}, "[4]": {"tested_on": "MDA-MB-231", "assay": "Antiproliferative activity against human MDA-MB-231 cells assessed as inhibition of cell growth measured after 72 hrs by MTT assay", "format": "functional, cell-based", "settings": "MDA-MB-231, 72 h"}, "[5]": {"tested_on": "Mitochondrial membrane", "assay": "Induction of mitochondrial membrane depolarization in human HCC827 cells assessed as increase in J-monomer ratio at 0.125 to 0.5 uM incubated for 4 hrs by JC-1 staining based flow cytometric analysis", "format": "cell membranes", "settings": "dose 0.125-0.5 µM"}, "[6]": {"tested_on": "Mitochondrial membrane", "assay": "Induction of mitochondrial membrane depolarization in human HCC827 cells assessed as increase green fluorescence intensity at 0.125 to 0.5 uM incubated for 4 hrs by rhodamine 123 staining based confocal microscopy analysis", "format": "cell membranes", "settings": "dose 0.125-0.5 µM"}, "[7]": {"tested_on": "HCC827", "assay": "Induction of mitochondrial dysfunction in human HCC827 cells assessed as reduction in glycolytic capacity at 0.125 to 5 uM incubated for 4 hrs by Seahorse XF96 extracellular flux analyzer", "format": "functional, cell-based", "settings": "dose 0.125-5 µM"}, "[8]": {"tested_on": "HCC827", "assay": "Induction of mitochondrial dysfunction in human HCC827 cells assessed as reduction in glycolytic reserve at 0.125 to 5 uM incubated for 4 hrs by Seahorse XF96 extracellular flux analyzer", "format": "functional, cell-based", "settings": "dose 0.125-5 µM"}, "[9]": {"tested_on": "HCC827", "assay": "Induction of mitochondrial dysfunction in human HCC827 cells assessed as suppression of ATP production incubated for 4 hrs by Seahorse XF96 extracellular flux analyzer", "format": "functional, cell-based", "settings": "dose 0.125-5 µM"}, "[10]": {"tested_on": "BEAS-2B", "assay": "Induction of mitochondrial dysfunction in human BEAS-2B cells assessed as reduction in glycolytic reserve at 0.125 to 5 uM incubated for 4 hrs by Seahorse XF96 extracellular flux analyzer", "format": "functional, cell-based", "settings": "dose 0.125-5 µM"}, "[11]": {"tested_on": "BEAS-2B", "assay": "Induction of mitochondrial dysfunction in human BEAS-2B cells assessed as decrease in ATP production at 0.125 to 5 uM incubated for 4 hrs by Seahorse XF96 extracellular flux analyzer", "format": "functional, cell-based", "settings": "dose 0.125-5 µM"}, "[12]": {"tested_on": "HCC827", "assay": "Induction of cell cycle arrest in human HCC827 cells assessed as accumulation of cells at G2 phase at 0.1 uM incubated for 24 hrs by PI staining based flow cytometry analysis (reference value: 7.15%)", "format": "functional"}, "[13]": {"tested_on": "HCC827", "assay": "Induction of cell cycle arrest in human HCC827 cells assessed as accumulation of cells at G2 phase at 0.2 uM incubated for 24 hrs by PI staining based flow cytometry analysis (reference value: 7.15%)", "format": "functional"}, "[14]": {"tested_on": "HCC827", "assay": "Induction of ROS generation in human HCC827 cells assessed as increase in NAD+/NADH ratio at 1 uM incubated for 4 hrs by absorbance based analysis", "format": "functional, cell-based"}, "[15]": {"tested_on": "HCC827", "assay": "Induction of ROS generation in human HCC827 cells at 1 uM incubated for 4 hrs in presence of NAC by DCFH-DA staining based by absorbance based laser confocal microscopic analysis", "format": "functional, cell-based"}, "[16]": {"tested_on": "HCC827", "assay": "Induction of ROS generation in human HCC827 cells assessed as increase in superoxide anion level by measuring increase in red fluorescence intensity at 1 uM incubated for 4 hrs by laser scanning confocal fluorescence microscopic analysis", "format": "functional, cell-based"}, "[17]": {"tested_on": "HCC827", "assay": "Induction of ferroptosis in human HCC827 cells assessed as decrease in glutathione reductase activity at 0.25 to 0.5 uM incubated for 24 hrs by DTNB solution based based microplate reader analysis", "format": "functional, cell-based", "settings": "dose 0.25-0.5 µM"}, "[18]": {"tested_on": "HCC827", "assay": "Induction of mitochondrial dysfunction in human HCC827 cells assessed as mitochondrial shrinkage by TEM analysis", "format": "functional, cell-based"}, "[19]": {"tested_on": "HCC827", "assay": "Induction of apoptosis in human HCC827 cells assessed as necrotic cells at 0.25 uM measured after 48 hrs by annexin V and PI staining based flow cytometry analysis (reference value: 1.18%)", "format": "functional"}, "[20]": {"tested_on": "HCC827", "assay": "Induction of apoptosis in human HCC827 cells assessed as necrotic cells at 0.5 uM measured after 48 hrs by annexin V and PI staining based flow cytometry analysis (reference value: 1.18%)", "format": "functional"}, "[21]": {"tested_on": "HCC827", "assay": "Induction of apoptosis in human HCC827 cells assessed as necrotic cells at 1 uM measured after 48 hrs by annexin V and PI staining based flow cytometry analysis (reference value: 1.18%)", "format": "functional"}, "[22]": {"tested_on": "HCC827", "assay": "Induction of apoptosis in human HCC827 cells assessed as early apoptotic cells at 1 uM measured after 24 hrs by annexin V and PI staining based flow cytometry analysis (reference value: 1.80%)", "format": "functional"}, "[23]": {"tested_on": "HCC827", "assay": "Induction of apoptosis in human HCC827 cells assessed as early apoptotic cells at 1 uM measured after 48 hrs by annexin V and PI staining based flow cytometry analysis (reference value: 1.80%)", "format": "functional"}, "[24]": {"tested_on": "HCC827", "assay": "Induction of apoptosis in human HCC827 cells assessed as necrotic cells at 1 uM measured after 48 hrs by annexin V and PI staining based flow cytometry analysis (Rvb =0.84%)", "format": "functional"}, "[25]": {"tested_on": "HCC827", "assay": "Antiproliferative activity against human HCC827 cells assessed as increase in cell viability at 1 uM measured after 48 hrs in presence of BFA by MTT assay", "format": "functional, cell-based"}, "[26]": {"tested_on": "HCC827", "assay": "Effect on NDUFB8 expression in human HCC827 cells at 0.25 to 0.5 uM", "format": "functional, cell-based", "settings": "dose 0.25-0.5 µM"}, "[27]": {"tested_on": "HCC827", "assay": "Effect on COX1 expression in human HCC827 cells at 0.25 to 0.5 uM", "format": "functional, cell-based", "settings": "dose 0.25-0.5 µM"}, "[28]": {"tested_on": "HCC827", "assay": "Effect on UQCRC2 expression in human HCC827 cells at 0.25 to 0.5 uM incubated for 24 hrs by Western blot analysis", "format": "functional, cell-based", "settings": "dose 0.25-0.5 µM"}, "[29]": {"tested_on": "HCC827", "assay": "Effect on COX1 expression in human HCC827 cells at 0.25 to 0.5 uM incubated for 24 hrs by Western blot analysis", "format": "functional, cell-based", "settings": "dose 0.25-0.5 µM"}, "[30]": {"tested_on": "HCC827", "assay": "Downregulation of SDHB expression in human HCC827 cells at 0.25 uM by Western blot analysis", "format": "functional, cell-based", "settings": "time <= 24.0 hrs"}, "[31]": {"tested_on": "HCC827", "assay": "Downregulation of […] protein level in human HCC827 cells at 0.25 to 0.5 uM measured after 12 hrs", "format": "functional, cell-based", "settings": "dose 0.25-0.5 µM"}, "[32]": {"tested_on": "HCC827", "assay": "Inhibition of cell migration in human HCC827 cells by wound healing assay", "format": "functional, cell-based", "settings": "dose 0.05-0.1 µM"}, "[33]": {"tested_on": "HCC827", "assay": "Inhibition of colony formation in human HCC827 cells incubated for 72 hrs by crystal violet staining based analysis", "format": "functional, cell-based", "settings": "dose 50-100 nM"}, "[34]": {"assay": "Toxicity in female BALB/c mouse assessed as histopathological changes in liver at 30 mg/kg, ip measured for 7 days by H and E staining based analysis", "format": "organism-based", "settings": "in vivo, 168 h, time 7 day"}, "[35]": {"assay": "Toxicity in female BALB/c mouse assessed as histopathological changes in lung at 30 mg/kg, ip measured for 7 days by H and E staining based analysis", "format": "organism-based", "settings": "in vivo, 168 h, time 7 day"}, "[36]": {"assay": "Toxicity in male Kunming mouse assessed as change in body weight at 70 mg/kg, ip measured every two days for 7 days", "format": "organism-based", "settings": "in vivo, 168 h, time 7 day"}, "[37]": {"tested_on": "HCC827", "assay": "Antitumor activity against human HCC827 cells xenografted in female nude mouse model assessed as reduction in tumor size at 5 to 10 mg/kg, ip measured every two days for 14 days", "format": "functional, organism-based", "settings": "dose 5-10 mg/kg, time 14.0 day"}},
  "note": "The source made the active and inactive calls. The rule behind the calls is not given here.",
  "data": [
    {"smiles": "Cc1ccc([P+](CCCCCCCCCCO)(c2ccc(C)cc2)c2ccc(C)cc2)cc1.[Br-]", "values": [
      {"measurement": "IC50 at 72 h", "setting": "[1]", "result": 1.31, "unit": "µM"},
      {"measurement": "IC50", "setting": "[2]", "result": 0.23, "unit": "µM"},
      {"measurement": "IC50", "setting": "[3]", "result": 0.14, "unit": "µM"},
      {"measurement": "IC50", "setting": "[4]", "result": 0.1, "unit": "µM"},
      {"measurement": "Activity", "setting": "[5]", "result": "Active"},
      {"measurement": "Activity", "setting": "[6]", "result": "inactive"},
      {"measurement": "Activity", "setting": "[7]", "result": "Active"},
      {"measurement": "Activity", "setting": "[8]", "result": "Active"},
      {"measurement": "Activity", "setting": "[9]", "result": "Dose-dependent-effect"},
      {"measurement": "Activity", "setting": "[10]", "result": "Minimal_effect"},
      {"measurement": "Activity", "setting": "[11]", "result": "Minimal_effect"},
      {"measurement": "Activity", "setting": "[12]", "result": 4.83, "unit": "%"},
      {"measurement": "Activity", "setting": "[13]", "result": 3.91, "unit": "%"},
      {"measurement": "Activity", "setting": "[14]", "result": "Active"},
      {"measurement": "Activity", "setting": "[15]", "result": "inactive"},
      {"measurement": "Activity", "setting": "[16]", "result": "Active"},
      {"measurement": "Activity", "setting": "[17]", "result": "Active"},
      {"measurement": "Activity", "setting": "[18]", "result": "Active"},
      {"measurement": "Activity", "setting": "[19]", "result": 2.91, "unit": "%"},
      {"measurement": "Activity", "setting": "[20]", "result": 2.09, "unit": "%"},
      {"measurement": "Activity", "setting": "[21]", "result": 2.19, "unit": "%"},
      {"measurement": "Activity", "setting": "[22]", "result": 1.17, "unit": "%"},
      {"measurement": "Activity", "setting": "[23]", "result": 5.33, "unit": "%"},
      {"measurement": "Activity", "setting": "[24]", "result": 2.02, "unit": "%"},
      {"measurement": "Activity", "setting": "[25]", "result": "Active"},
      {"measurement": "Activity", "setting": "[26]", "result": "Active"},
      {"measurement": "Activity", "setting": "[27]", "result": "Active"},
      {"measurement": "Activity", "setting": "[28]", "result": "Active"},
      {"measurement": "Activity", "setting": "[29]", "result": "Active"},
      {"measurement": "Activity", "setting": "[30]", "result": "Time-dependent-effect"},
      {"measurement": "Activity", "setting": "[31]", "result": "Active"},
      {"measurement": "inhibition", "setting": "[32]", "result": "Dose-dependent-effect"},
      {"measurement": "inhibition", "setting": "[33]", "result": "Dose-dependent-effect"},
      {"measurement": "Activity", "setting": "[34]", "result": "Non-toxic"},
      {"measurement": "Activity", "setting": "[35]", "result": "Non-toxic"},
      {"measurement": "Activity", "setting": "[36]", "result": "Toxic"},
      {"measurement": "Activity", "setting": "[37]", "result": "Active"}
    ]}
  ]
}
